The nature of data set [1]: Inhibition of PI3Kgamma in […] RAW264.7 cells assessed as reduction in C5a-stimulated AKT phosphorylation at Ser473 residue preincubated for 30 mins followed by C5a-stimulation and measured after 5 mins. It is filed as cell-based.
Data set [2] deals with T1, PI3K p110 beta/p85 alpha (Homo sapiens, UniProt P42338). In words: Inhibition of N-terminal His6-tagged recombinant full length human p110beta/untagged recombinant full length human p85alpha expressed in baculovirus infected Sf21 insect cells at 1 uM using PIP2 as substrate measured after 80 mins by transcreener fluorescence polarization assay relative to control.
The nature of data set [3]: Stability in rat liver microsomes assessed as parent compound remaining at 1 uM measured after 30 mins in presence of NADPH generating system. (In general: Liver microsomes are vesicles of endoplasmic reticulum, rich in cytochrome P450 enzymes.)
A short description of data set [4]: Stability in human liver microsomes assessed as parent compound remaining at 1 uM measured after 30 mins in presence of NADPH generating system.
Data set [5] addresses PI3-kinase p110-alpha/p85-alpha (Homo sapiens, UniProt P42336). In words: Inhibition of recombinant human full-length N-terminal His-tagged PI3K p110alpha/p85alpha expressed in baculovirus expression system at 1 uM using PIP2 as substrate measured after 80 mins by transcreener fluorescence polarization assay relative to control. In general terms: Fluorescence polarisation rises when a labelled molecule tumbles more slowly, as on binding a larger partner.

For data set [6], the target named is T2, Phosphatidylinositol 4,5-bisphosphate 3-kinase catalytic subunit delta isoform (Homo sapiens, UniProt O00329).
T2 sequence (O00329 whole entry): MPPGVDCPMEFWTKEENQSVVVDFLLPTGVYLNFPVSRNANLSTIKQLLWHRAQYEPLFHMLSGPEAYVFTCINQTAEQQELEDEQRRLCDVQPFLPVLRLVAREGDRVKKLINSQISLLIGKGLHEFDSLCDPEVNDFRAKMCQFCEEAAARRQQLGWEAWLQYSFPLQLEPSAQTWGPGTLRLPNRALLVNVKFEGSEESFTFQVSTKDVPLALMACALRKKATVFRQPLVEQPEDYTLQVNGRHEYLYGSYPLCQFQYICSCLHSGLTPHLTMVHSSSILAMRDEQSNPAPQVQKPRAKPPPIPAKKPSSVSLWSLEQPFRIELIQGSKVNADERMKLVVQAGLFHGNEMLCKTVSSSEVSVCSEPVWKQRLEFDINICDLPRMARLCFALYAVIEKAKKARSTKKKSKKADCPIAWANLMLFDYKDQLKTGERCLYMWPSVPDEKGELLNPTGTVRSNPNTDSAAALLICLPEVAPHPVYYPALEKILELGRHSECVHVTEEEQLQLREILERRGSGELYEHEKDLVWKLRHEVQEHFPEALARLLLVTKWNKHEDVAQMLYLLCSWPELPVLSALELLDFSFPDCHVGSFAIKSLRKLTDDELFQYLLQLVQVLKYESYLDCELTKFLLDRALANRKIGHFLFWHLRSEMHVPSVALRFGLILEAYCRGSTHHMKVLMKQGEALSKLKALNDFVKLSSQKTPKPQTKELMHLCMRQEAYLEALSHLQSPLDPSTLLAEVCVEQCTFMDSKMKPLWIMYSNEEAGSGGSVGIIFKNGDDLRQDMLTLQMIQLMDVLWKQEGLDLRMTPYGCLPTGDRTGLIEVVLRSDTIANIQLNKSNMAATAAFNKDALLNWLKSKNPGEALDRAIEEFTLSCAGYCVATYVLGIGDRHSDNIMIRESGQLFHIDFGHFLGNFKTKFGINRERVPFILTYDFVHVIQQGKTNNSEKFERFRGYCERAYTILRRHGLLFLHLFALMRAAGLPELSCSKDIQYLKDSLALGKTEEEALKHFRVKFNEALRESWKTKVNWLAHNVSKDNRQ
In words: Inhibition of PI3Kdelta in human Ramos cells assessed as reduction in antihuman IgM-stimulated AKT phosphorylation at Ser473 residue preincubated for 60 mins followed by antihuman IgM stimulation and measured after 15 mins. It is filed as cell-based.

The nature of data set [7]: Drug metabolism in human liver microsomes assessed as oxidation of pyrrolidine linker at 1 uM measured after 30 mins in presence of NADPH-generating system. It is filed as ADME, Microsome. To be noted: 0.5 h.
Data set [8] has as its target Phosphatidylinositol 4,5-bisphosphate 3-kinase catalytic subunit gamma isoform (Homo sapiens, UniProt P48736).
Description: Inhibition of recombinant human full-length His-tagged PI3K p110gamma expressed in baculovirus expression system using PIP2 as substrate measured after 80 mins by transcreener fluorescence polarization assay
The test system of data set [9] is liver microsomes (Homo sapiens / Mus musculus). In words: Drug metabolism in human and mouse liver microsomes assessed as oxidation of pyrrolidine linker at 1 uM measured after 30 mins in presence of NADPH-generating system. To be noted: 0.5 h.
In data set [10] the target is T1, PI3K p110 beta/p85 alpha. In words: Inhibition of N-terminal His6-tagged recombinant full length human p110beta/untagged recombinant full length human p85alpha expressed in baculovirus infected Sf21 insect cells using PIP2 as substrate measured after 80 mins by transcreener fluorescence polarization assay.
For data set [11], the target named is PI3-kinase p110-delta/p85-alpha (Homo sapiens, UniProt O00329). In words: biochemical.
PI3-kinase p110-delta/p85-alpha, sequence (P27986 whole entry, one chain of several): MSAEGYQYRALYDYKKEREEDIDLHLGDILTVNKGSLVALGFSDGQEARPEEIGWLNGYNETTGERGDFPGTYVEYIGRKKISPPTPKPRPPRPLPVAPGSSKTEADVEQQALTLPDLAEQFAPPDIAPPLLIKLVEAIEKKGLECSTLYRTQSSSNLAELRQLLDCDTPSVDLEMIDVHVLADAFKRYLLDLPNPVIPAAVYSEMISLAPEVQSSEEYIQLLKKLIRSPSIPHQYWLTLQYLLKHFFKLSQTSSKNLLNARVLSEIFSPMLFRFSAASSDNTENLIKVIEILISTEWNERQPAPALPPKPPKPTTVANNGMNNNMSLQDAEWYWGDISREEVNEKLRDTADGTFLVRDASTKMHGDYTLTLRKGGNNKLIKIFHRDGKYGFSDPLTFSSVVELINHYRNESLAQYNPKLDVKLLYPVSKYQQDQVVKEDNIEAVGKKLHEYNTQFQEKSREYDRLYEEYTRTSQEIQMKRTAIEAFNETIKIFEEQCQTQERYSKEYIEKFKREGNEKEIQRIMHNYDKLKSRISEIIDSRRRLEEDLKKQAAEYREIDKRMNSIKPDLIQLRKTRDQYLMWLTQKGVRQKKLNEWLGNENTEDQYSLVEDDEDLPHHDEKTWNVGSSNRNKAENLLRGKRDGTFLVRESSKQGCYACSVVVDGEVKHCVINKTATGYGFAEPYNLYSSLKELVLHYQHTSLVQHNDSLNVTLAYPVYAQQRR
Description: Inhibition of N-terminal His6-tagged recombinant full length human p110delta/untagged recombinant full length human p85alpha expressed in baculovirus infected Sf21 insect cells using PIP2 as substrate measured after 80 mins by transcreener fluorescence polarization assay

PI3-kinase p110-alpha/p85-alpha, sequence (P27986 whole entry): as the sequence (P27986 whole entry, one chain of several) above
PI3-kinase p110-alpha/p85-alpha, sequence (P42336 whole entry): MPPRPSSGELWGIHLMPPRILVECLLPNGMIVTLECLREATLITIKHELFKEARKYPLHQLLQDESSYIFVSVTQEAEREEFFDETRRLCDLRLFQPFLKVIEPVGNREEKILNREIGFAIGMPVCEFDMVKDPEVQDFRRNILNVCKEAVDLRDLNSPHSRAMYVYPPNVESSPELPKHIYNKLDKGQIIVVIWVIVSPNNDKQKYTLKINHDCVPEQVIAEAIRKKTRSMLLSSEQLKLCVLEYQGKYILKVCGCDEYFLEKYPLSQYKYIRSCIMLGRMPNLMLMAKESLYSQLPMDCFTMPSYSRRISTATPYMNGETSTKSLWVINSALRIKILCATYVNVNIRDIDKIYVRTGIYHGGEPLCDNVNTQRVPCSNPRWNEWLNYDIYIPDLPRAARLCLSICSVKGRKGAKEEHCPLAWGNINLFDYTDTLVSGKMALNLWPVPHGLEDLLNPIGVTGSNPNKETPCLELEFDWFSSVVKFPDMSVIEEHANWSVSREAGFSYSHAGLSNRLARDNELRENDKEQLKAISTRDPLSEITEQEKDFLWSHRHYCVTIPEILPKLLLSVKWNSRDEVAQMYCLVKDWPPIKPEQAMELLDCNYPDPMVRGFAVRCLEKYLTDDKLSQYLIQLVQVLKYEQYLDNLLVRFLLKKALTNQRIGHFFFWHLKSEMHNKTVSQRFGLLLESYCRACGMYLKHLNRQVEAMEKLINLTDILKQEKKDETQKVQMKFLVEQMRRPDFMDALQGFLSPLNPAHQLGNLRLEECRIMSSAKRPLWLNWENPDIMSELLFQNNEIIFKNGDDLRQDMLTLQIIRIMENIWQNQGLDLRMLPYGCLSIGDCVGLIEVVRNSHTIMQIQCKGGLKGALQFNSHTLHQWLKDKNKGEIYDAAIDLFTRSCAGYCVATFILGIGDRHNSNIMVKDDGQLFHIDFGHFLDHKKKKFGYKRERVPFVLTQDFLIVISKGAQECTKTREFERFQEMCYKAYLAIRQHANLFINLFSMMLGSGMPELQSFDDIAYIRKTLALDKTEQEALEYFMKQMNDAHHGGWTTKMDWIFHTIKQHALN
T1 sequence (P27986 whole entry): as the sequence (P27986 whole entry, one chain of several) above
T1 sequence (P42338 whole entry): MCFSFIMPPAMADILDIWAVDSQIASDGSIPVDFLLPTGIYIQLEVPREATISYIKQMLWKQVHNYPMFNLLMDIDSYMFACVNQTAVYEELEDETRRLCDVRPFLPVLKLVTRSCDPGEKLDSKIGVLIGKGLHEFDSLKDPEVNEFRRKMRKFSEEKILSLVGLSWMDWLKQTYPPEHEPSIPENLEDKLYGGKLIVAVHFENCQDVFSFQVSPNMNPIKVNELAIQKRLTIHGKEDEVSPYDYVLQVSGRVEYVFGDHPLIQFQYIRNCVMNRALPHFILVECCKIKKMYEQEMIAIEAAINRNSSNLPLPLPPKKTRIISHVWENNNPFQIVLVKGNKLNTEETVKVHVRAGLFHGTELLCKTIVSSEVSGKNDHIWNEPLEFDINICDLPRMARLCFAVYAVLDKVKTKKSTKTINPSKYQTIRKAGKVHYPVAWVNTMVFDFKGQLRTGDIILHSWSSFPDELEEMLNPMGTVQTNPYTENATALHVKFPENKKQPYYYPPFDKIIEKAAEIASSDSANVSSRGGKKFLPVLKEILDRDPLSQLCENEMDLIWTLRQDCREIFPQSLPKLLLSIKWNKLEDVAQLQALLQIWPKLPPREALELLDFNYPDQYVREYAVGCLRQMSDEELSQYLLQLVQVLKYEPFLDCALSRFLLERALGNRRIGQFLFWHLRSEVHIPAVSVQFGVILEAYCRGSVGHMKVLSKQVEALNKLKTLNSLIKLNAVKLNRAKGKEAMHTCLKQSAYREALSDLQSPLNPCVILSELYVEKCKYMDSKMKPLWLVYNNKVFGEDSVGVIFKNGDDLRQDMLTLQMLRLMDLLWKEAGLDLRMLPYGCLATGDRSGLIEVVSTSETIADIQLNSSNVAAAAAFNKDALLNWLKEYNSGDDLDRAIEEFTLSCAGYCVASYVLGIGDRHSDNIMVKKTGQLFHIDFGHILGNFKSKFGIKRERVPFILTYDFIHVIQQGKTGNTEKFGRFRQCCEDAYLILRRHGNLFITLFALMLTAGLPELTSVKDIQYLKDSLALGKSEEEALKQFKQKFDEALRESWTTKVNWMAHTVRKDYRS
Phosphatidylinositol 4,5-bisphosphate 3-kinase catalytic subunit gamma isoform, sequence (P48736 whole entry, canonical isoform): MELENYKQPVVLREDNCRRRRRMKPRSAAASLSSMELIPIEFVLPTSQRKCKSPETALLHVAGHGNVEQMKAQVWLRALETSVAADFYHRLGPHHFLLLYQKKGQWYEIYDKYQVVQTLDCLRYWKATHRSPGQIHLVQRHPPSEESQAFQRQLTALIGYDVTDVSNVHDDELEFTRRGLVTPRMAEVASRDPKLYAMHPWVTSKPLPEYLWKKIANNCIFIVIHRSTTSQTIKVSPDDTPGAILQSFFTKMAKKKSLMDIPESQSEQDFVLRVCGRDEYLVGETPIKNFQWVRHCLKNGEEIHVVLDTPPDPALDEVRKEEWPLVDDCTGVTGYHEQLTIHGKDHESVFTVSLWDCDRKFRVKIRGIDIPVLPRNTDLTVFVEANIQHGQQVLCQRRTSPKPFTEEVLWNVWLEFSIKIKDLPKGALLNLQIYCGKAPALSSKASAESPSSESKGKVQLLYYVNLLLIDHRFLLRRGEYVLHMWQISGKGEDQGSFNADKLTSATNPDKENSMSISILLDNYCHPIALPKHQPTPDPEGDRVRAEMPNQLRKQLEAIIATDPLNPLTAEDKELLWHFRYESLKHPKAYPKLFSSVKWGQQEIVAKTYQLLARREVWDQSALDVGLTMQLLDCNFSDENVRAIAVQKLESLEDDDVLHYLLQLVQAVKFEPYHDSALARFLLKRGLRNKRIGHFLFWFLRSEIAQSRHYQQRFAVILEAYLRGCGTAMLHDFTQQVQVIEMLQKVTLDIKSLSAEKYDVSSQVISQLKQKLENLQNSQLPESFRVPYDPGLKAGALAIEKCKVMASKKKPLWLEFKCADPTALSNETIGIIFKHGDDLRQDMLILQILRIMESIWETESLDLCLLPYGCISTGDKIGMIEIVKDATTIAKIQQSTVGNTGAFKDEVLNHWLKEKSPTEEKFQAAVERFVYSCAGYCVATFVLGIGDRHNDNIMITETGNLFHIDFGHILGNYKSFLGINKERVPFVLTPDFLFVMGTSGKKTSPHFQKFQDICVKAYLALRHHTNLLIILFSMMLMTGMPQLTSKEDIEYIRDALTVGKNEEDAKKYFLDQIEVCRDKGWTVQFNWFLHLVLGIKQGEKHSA

In general, IC50 refers to the midpoint of a concentration-inhibition curve. As to `CC[C@H](Nc1ncnc2[nH]cnc12)c1nc2cccc(F)c2c(=O)n1-c1ccccc1` [IDELALISIB], the IC50 in data set [1] came to 337 nM.

One may read the inhibition as the change of the read-out against control, counted positive when it falls. A word on the amount remaining: it is what is left of the initial amount, in per cent. For the molecule `O=c1c2c(Cl)ccn2nc([C@@H]2CCN2c2ncnc3[nH]cnc23)n1-c1ccccc1`, the inhibition at 1 µM is 18.5% in data set [2] and -1.5% in data set [5]. The fraction remaining at 0.5 h, 1 µM in data set [3] worked out at 78.5%; in data set [4], 95.4%.

For the molecule `O=c1c2c(Cl)ccn2nc([C@@H]2C[C@H](F)CN2c2ncnc3[nH]cnc23)n1-c1ccccc1`, the IC50 was 20 nM in data set [1] and 1 nM in data set [6]. In addition, the amount remaining at 0.5 h, 1 µM in data set [3] is 43.8%.

Regarding `CC(=O)c1c[nH]c2ncnc(N3CCC[C@H]3c3nn4ccc(F)c4c(=O)n3-c3ccccc3)c12`, the IC50 in data set [1] was determined as 42 nM; in data set [6] it was 5 nM. In addition, the values for the share remaining at 0.5 h, 1 µM in data set [3] and in data set [4] were 26.1% and 25.1%, respectively.

In the case of `N#Cc1c[nH]c2ncnc(N3CCC[C@H]3c3nn4cccc4c(=O)n3-c3ccccc3)c12`, the inhibition at 1 µM in data set [2] came to 47.7%. The IC50 in [1] was determined as 40 nM; in data set [6], 3 nM; in data set [8], 19 nM. For the same molecule, the fraction remaining at 0.5 h, 1 µM in data set [3] stood at 19.1%; in data set [4], 2.8%. For the same molecule, the Drug metabolism result in data set [7] and in data set [9] was “Metabolite_Detected” throughout.

For `CC(=O)c1c[nH]c2ncnc(N3CCC[C@H]3c3nn4ccc(Cl)c4c(=O)n3-c3cccc(F)c3)c12`, the results for the IC50 in data set [1] and in data set [6] were 7 nM and 3 nM, respectively. The share remaining at 0.5 h, 1 µM in [4] amounted to 11.7%.

With `N#Cc1cnc(N)nc1N1CC[C@H]1c1nn2ccc(Cl)c2c(=O)n1-c1ccccc1`, the inhibition at 1 µM was 37% in data set [2] and less than 50% in [5]. The figures for the IC50 in data set [1] and in [6] were 241 nM and 16 nM, respectively. Moreover, the fraction remaining at 0.5 h, 1 µM in data set [3] turned out to be 77.5%; in data set [4] it was 71.2%.

Take `CC(=O)c1c[nH]c2ncnc(N3C[C@@H](F)C[C@H]3c3nn4ccc(Cl)c4c(=O)n3-c3ccccc3)c12`: the amount remaining at 0.5 h, 1 µM in [3] stood at 60.4%; in [4], 20.1%.

As for `N#Cc1c[nH]c2ncnc(N3CCC[C@H]3c3nn4ccc(Cl)c4c(=O)n3-c3ccccc3)c12`, the amount remaining at 0.5 h, 1 µM in [3] worked out at 38.7%.

Regarding `CC(=O)c1c[nH]c2ncnc(N3CC[C@H]3c3nn4ccc(Cl)c4c(=O)n3-c3ccccc3)c12`, the inhibition at 1 µM in [2] was 45.9%; in data set [5] it was 8.4%. In addition, the half-inhibitory concentration (IC50) in data set [1] worked out at 142 nM; in data set [6], 21 nM. Besides, the amount remaining at 0.5 h, 1 µM is 77.2% in data set [3] and 83% in data set [4].

Take `N#Cc1c[nH]c2ncnc(N3CC[C@H]3c3nn4ccc(Cl)c4c(=O)n3-c3ccccc3)c12`: the IC50 in [10] is 945 nM; in [1], 152 nM; in data set [6], 21 nM; in [8] it was 34 nM; in [11], 13 nM. The fraction remaining at 0.5 h, 1 µM turned out to be 63.9% in [3] and 89.8% in data set [4]. Moreover, the inhibition at 1 µM in [5] is -0.3%.
